Measured values taken from patent US20250353891A1 (MEDIMMUNE LIMITED, priority 2022, published 2025).
Starred links: 1 amine or outer side, 2 acyl side, 3 side chain; linkers in the order of their positions; H or OH if unused. Non-standard residues stand in square brackets, D forms with d. Residues, ends and D or L forms follow the SMILES beside them. Groups on a side chain read outwards from the residue. *: point of attachment. C20 diacid = O=C(O)CCCCCCCCCCCCCCCCCCC(=O)*; C18 diacid = O=C(O)CCCCCCCCCCCCCCCCC(=O)*; γGlu = O=C(O)[C@H](CCC(=O)[*:2])N[*:1]; αMeF = C[C@](N)(Cc1ccccc1)C(=O)O; NMeQ = CN[C@@H](CCC(N)=O)C(=O)O; αMeQ = C[C@](N)(CCC(N)=O)C(=O)O; Ac4c = NC1(C(=O)O)CCC1; AEEA = NCCOCCOCC(=O)O; Ac3c = NC1(C(=O)O)CC1; Aib = CC(C)(N)C(=O)O

What was measured:
[1] = target: human GLP-1 receptor (hGLP-1R) (Homo sapiens, UniProt P43220); assay: cAMP production (HTRF) in CHO cells expressing hGLP-1R; type: cell-based; parameters: expressed in transfected cells; details: for EC50: Table 7, peptides modified at position 20, cAMP in CHO hGLP-1R cells, geometric mean, read-out: hGLP-1R EC50; for % Relative Potency Ratio: Table 7, % GLP-1R activity relative to GLP-1 / % GlucR activity relative to glucagon
Procedure, shortened: (§1)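 Read-out: HTRF cAMP (anti-cAMP cryptate donor, cAMP-d2 acceptor in conjugate/lysis buffer), converted to % Delta F and fitted by 4-parameter logistic for EC50. Cell densities were 1×10^5 cells/mL (hGLP-1R) or 2×10^5 cells/mL (hGCGR). Stimulation lasted 30 min at room temperature.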

[2] = target: human glucagon receptor (hGCGR) (Homo sapiens, UniProt P47871); assay: cAMP production (HTRF) in CHO cells expressing hGCGR; type: cell-based; parameters: expressed in transfected cells; details: Table 7, peptides modified at position 20; cAMP in CHO hGCGR cells; geometric mean; read-out: hGluc-R EC50
Procedure, shortened: as §1

human GLP-1 receptor (hGLP-1R), sequence (P43220 24-463): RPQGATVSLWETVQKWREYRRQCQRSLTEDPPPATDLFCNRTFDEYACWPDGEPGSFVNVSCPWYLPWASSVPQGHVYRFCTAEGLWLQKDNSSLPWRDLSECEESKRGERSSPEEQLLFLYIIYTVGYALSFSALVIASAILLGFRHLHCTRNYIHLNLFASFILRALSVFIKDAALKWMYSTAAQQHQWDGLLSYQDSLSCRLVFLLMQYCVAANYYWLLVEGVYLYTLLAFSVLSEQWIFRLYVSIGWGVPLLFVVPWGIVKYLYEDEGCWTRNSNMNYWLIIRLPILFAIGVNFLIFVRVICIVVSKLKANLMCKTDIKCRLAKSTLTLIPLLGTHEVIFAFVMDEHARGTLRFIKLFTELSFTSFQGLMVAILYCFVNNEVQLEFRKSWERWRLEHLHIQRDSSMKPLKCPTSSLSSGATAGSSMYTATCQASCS
human glucagon receptor (hGCGR), sequence (P47871 26-477): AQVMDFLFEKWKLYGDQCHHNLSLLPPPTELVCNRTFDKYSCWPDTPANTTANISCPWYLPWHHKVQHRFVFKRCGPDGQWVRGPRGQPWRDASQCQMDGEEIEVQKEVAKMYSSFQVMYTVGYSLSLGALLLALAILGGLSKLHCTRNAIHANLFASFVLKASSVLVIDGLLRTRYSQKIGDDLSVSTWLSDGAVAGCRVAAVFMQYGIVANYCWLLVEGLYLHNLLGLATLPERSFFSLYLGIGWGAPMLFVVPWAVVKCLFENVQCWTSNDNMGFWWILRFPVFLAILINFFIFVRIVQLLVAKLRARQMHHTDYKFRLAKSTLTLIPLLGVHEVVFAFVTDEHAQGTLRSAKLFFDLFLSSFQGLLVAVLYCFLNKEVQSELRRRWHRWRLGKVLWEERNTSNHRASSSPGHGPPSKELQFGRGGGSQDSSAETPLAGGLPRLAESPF

With `CC[C@H](C)[C@H](NC(=O)[C@H](Cc1c[nH]c2ccccc12)NC(=O)[C@H](CCC(N)=O)NC(=O)[C@@H](NC(=O)[C@H](Cc1ccccc1)NC(=O)[C@H](CC(=O)O)NC(=O)[C@H](CCCCNC(=O)COCCOCCNC(=O)COCCOCCNC(=O)CC[C@H](NC(=O)CCCCCCCCCCCCCCCCC(=O)O)C(=O)O)NC(=O)[C@H](C)NC(=O)[C@H](C)NC(=O)[C@H](CCCNC(=N)N)NC(=O)[C@H](CO)NC(=O)[C@H](CC(=O)O)NC(=O)[C@H](CC(C)C)NC(=O)[C@](C)(Cc1ccccc1)NC(=O)[C@H](CCCCN)NC(=O)[C@H](CO)NC(=O)[C@@H](NC(=O)[C@H](CC(=O)O)NC(=O)[C@H](CO)NC(=O)[C@@H](NC(=O)[C@H](Cc1ccccc1)NC(=O)[C@@H](NC(=O)CNC(=O)[C@H](CCC(N)=O)NC(=O)[C@](C)(CO)NC(=O)[C@@H](N)Cc1c[nH]cn1)[C@@H](C)O)[C@@H](C)O)C(C)C)C(C)C)C(=O)N[C@@H](C)C(=O)N[C@@H](CC(N)=O)C(=O)N[C@H](C(N)=O)[C@@H](C)O` [Peptide 318] the EC50 [1] was 0.0553 nM, the “% Relative Potency Ratio” value [1] was 429.7 and the EC50 [2] was 12 nM.
With `CC[C@H](C)[C@H](NC(=O)C(C)(C)NC(=O)[C@H](CCC(N)=O)NC(=O)[C@@H](NC(=O)[C@](C)(Cc1ccccc1)NC(=O)[C@H](CC(=O)O)NC(=O)[C@H](CCCCNC(=O)COCCOCCNC(=O)COCCOCCNC(=O)CC[C@H](NC(=O)CCCCCCCCCCCCCCCCC(=O)O)C(=O)O)NC(=O)[C@H](C)NC(=O)[C@H](C)NC(=O)[C@H](CCCNC(=N)N)NC(=O)[C@H](CO)NC(=O)[C@H](CC(=O)O)NC(=O)[C@H](CC(C)C)NC(=O)[C@](C)(Cc1ccccc1)NC(=O)[C@H](CCCCN)NC(=O)[C@H](CO)NC(=O)[C@@H](NC(=O)[C@H](CC(=O)O)NC(=O)[C@H](CO)NC(=O)[C@@H](NC(=O)[C@](C)(Cc1ccccc1)NC(=O)[C@H](CO)NC(=O)CNC(=O)[C@H](CCC(N)=O)NC(=O)C(C)(C)NC(=O)[C@@H](N)Cc1c[nH]cn1)[C@@H](C)O)C(C)C)C(C)C)C(=O)N[C@@H](C)C(=O)N[C@@H](CC(N)=O)C(=O)N[C@H](C(N)=O)[C@@H](C)O` [Peptide 321] (H-H[Aib]QGS[αMeF]TSDVSK[αMeF]LDSRAAK([AEEA-AEEA-γGlu-C18 diacid])D[αMeF]VQ[Aib]IANT-NH2) the EC50 [1] was 0.0226 nM, the “% Relative Potency Ratio” value [1] was 384.7 and the EC50 [2] was 4.4 nM.
An EC50 [1] of 0.0683 nM and an EC50 [2] of over 24.7 nM were found for `CC[C@H](C)[C@H](NC(=O)C(C)(C)NC(=O)[C@H](CCC(N)=O)NC(=O)[C@@H](NC(=O)[C@](C)(Cc1ccccc1)NC(=O)[C@H](CC(=O)O)NC(=O)[C@H](CCCCNC(=O)COCCOCCNC(=O)COCCOCCNC(=O)CC[C@H](NC(=O)CC[C@H](NC(=O)CCCCCCCCCCCCCCCCCCC(=O)O)C(=O)O)C(=O)O)NC(=O)[C@H](C)NC(=O)[C@H](C)NC(=O)[C@H](CCCNC(=N)N)NC(=O)[C@H](CO)NC(=O)[C@H](CC(=O)O)NC(=O)[C@H](CC(C)C)NC(=O)[C@](C)(Cc1ccccc1)NC(=O)[C@H](CCCCN)NC(=O)[C@H](CO)NC(=O)[C@@H](NC(=O)[C@H](CC(=O)O)NC(=O)[C@H](CO)NC(=O)[C@@H](NC(=O)[C@](C)(Cc1ccccc1)NC(=O)[C@H](CO)NC(=O)CNC(=O)[C@H](CCC(N)=O)NC(=O)C(C)(C)NC(=O)[C@@H](N)Cc1c[nH]cn1)[C@@H](C)O)C(C)C)C(C)C)C(=O)N[C@@H](C)C(=O)N[C@@H](CC(N)=O)C(=O)N[C@H](C(N)=O)[C@@H](C)O` [Peptide 322] (H-H[Aib]QGS[αMeF]TSDVSK[αMeF]LDSRAAK([AEEA-AEEA-γGlu-γGlu-C20 diacid])D[αMeF]VQ[Aib]IANT-NH2) in this work.
An EC50 [1] of 11.4 nM and an EC50 [2] of over 25.6 nM were found for `CC[C@H](C)[C@H](NC(=O)C(C)(C)NC(=O)[C@H](CCC(N)=O)NC(=O)[C@@H](NC(=O)[C@](C)(Cc1ccccc1)NC(=O)[C@H](CC(=O)O)NC(=O)[C@H](CCCCNC(=O)COCCOCCNC(=O)COCCOCCNC(=O)CC[C@H](NC(=O)CCCCCCCCCCCCCCCCC(=O)O)C(=O)O)NC(=O)[C@H](C)NC(=O)[C@H](C)NC(=O)[C@H](CCCNC(=N)N)NC(=O)[C@H](CO)NC(=O)[C@H](CC(=O)O)NC(=O)[C@H](CC(C)C)NC(=O)[C@](C)(Cc1ccccc1)NC(=O)[C@H](CCCCN)NC(=O)[C@H](CO)NC(=O)[C@@H](NC(=O)[C@H](CC(=O)O)NC(=O)[C@H](CO)NC(=O)[C@@H](NC(=O)[C@](C)(Cc1ccccc1)NC(=O)[C@H](CO)NC(=O)CNC(=O)[C@](C)(CCC(N)=O)NC(=O)[C@H](CO)NC(=O)[C@@H](N)Cc1c[nH]cn1)[C@@H](C)O)C(C)C)C(C)C)C(=O)N[C@@H](C)C(=O)N[C@@H](CC(N)=O)C(=O)N[C@H](C(N)=O)[C@@H](C)O` [Peptide 323] (H-HS[αMeQ]GS[αMeF]TSDVSK[αMeF]LDSRAAK([AEEA-AEEA-γGlu-C18 diacid])D[αMeF]VQ[Aib]IANT-NH2) in this work.
An EC50 [1] of 0.929 nM and an EC50 [2] of over 25.5 nM were found for `CC[C@H](C)[C@H](NC(=O)C(C)(C)NC(=O)[C@H](CCC(N)=O)NC(=O)[C@@H](NC(=O)[C@](C)(Cc1ccccc1)NC(=O)[C@H](CC(=O)O)NC(=O)[C@H](CCCCNC(=O)COCCOCCNC(=O)COCCOCCNC(=O)CC[C@H](NC(=O)CCCCCCCCCCCCCCCCC(=O)O)C(=O)O)NC(=O)[C@H](C)NC(=O)[C@H](C)NC(=O)[C@H](CCCNC(=N)N)NC(=O)[C@H](CO)NC(=O)[C@H](CC(=O)O)NC(=O)[C@H](CC(C)C)NC(=O)[C@](C)(Cc1ccccc1)NC(=O)[C@H](CCCCN)NC(=O)[C@H](CO)NC(=O)[C@@H](NC(=O)[C@H](CC(=O)O)NC(=O)[C@H](CO)NC(=O)[C@@H](NC(=O)[C@](C)(Cc1ccccc1)NC(=O)[C@H](CO)NC(=O)CNC(=O)[C@H](CCC(N)=O)N(C)C(=O)[C@H](CO)NC(=O)[C@@H](N)Cc1c[nH]cn1)[C@@H](C)O)C(C)C)C(C)C)C(=O)N[C@@H](C)C(=O)N[C@@H](CC(N)=O)C(=O)N[C@H](C(N)=O)[C@@H](C)O` [Peptide 325] (H-HS[NMeQ]GS[αMeF]TSDVSK[αMeF]LDSRAAK([AEEA-AEEA-γGlu-C18 diacid])D[αMeF]VQ[Aib]IANT-NH2) in this work.
An EC50 [1] of 6.74 nM and an EC50 [2] of over 25.6 nM were found for `CC[C@H](C)[C@H](NC(=O)C(C)(C)NC(=O)[C@H](CCC(N)=O)NC(=O)[C@@H](NC(=O)[C@](C)(Cc1ccccc1)NC(=O)[C@H](CC(=O)O)NC(=O)[C@H](CCCCNC(=O)COCCOCCNC(=O)COCCOCCNC(=O)CC[C@H](NC(=O)CCCCCCCCCCCCCCCCC(=O)O)C(=O)O)NC(=O)[C@H](C)NC(=O)[C@H](C)NC(=O)[C@H](CCCNC(=N)N)NC(=O)[C@H](CO)NC(=O)[C@H](CC(=O)O)NC(=O)[C@H](CC(C)C)NC(=O)[C@](C)(Cc1ccccc1)NC(=O)[C@H](CCCCN)NC(=O)[C@H](CO)NC(=O)[C@@H](NC(=O)[C@H](CC(=O)O)NC(=O)[C@H](CO)NC(=O)[C@@H](NC(=O)[C@](C)(Cc1ccccc1)NC(=O)[C@H](CO)NC(=O)CNC(=O)[C@@H](CCC(N)=O)NC(=O)[C@H](CO)NC(=O)[C@@H](N)Cc1c[nH]cn1)[C@@H](C)O)C(C)C)C(C)C)C(=O)N[C@@H](C)C(=O)N[C@@H](CC(N)=O)C(=O)N[C@H](C(N)=O)[C@@H](C)O` [Peptide 326] (H-HS[dQ]GS[αMeF]TSDVSK[αMeF]LDSRAAK([AEEA-AEEA-γGlu-C18 diacid])D[αMeF]VQ[Aib]IANT-NH2) in this work.
An EC50 [1] of 0.0301 nM and an EC50 [2] of over 25.7 nM were found for `CC[C@H](C)[C@H](NC(=O)C(C)(C)NC(=O)[C@H](CCC(N)=O)NC(=O)[C@@H](NC(=O)[C@](C)(Cc1ccccc1)NC(=O)[C@H](CC(=O)O)NC(=O)[C@H](CCCCNC(=O)COCCOCCNC(=O)COCCOCCNC(=O)CC[C@H](NC(=O)CCCCCCCCCCCCCCCCC(=O)O)C(=O)O)NC(=O)[C@H](C)NC(=O)[C@H](C)NC(=O)[C@H](CCCNC(=N)N)NC(=O)[C@H](CO)NC(=O)[C@H](CC(=O)O)NC(=O)[C@H](CC(C)C)NC(=O)[C@](C)(Cc1ccccc1)NC(=O)[C@H](CCCCN)NC(=O)[C@H](CO)NC(=O)[C@@H](NC(=O)[C@H](CC(=O)O)NC(=O)[C@H](CO)NC(=O)[C@@H](NC(=O)[C@](C)(Cc1ccccc1)NC(=O)[C@H](CO)NC(=O)CNC(=O)[C@H](CCC(N)=O)NC(=O)C1(NC(=O)[C@@H](N)Cc2c[nH]cn2)CC1)[C@@H](C)O)C(C)C)C(C)C)C(=O)N[C@@H](C)C(=O)N[C@@H](CC(N)=O)C(=O)N[C@H](C(N)=O)[C@@H](C)O` [Peptide 327] (H-H[Ac3c]QGS[αMeF]TSDVSK[αMeF]LDSRAAK([AEEA-AEEA-γGlu-C18 diacid])D[αMeF]VQ[Aib]IANT-NH2) in this work.
For `CC[C@H](C)[C@H](NC(=O)C(C)(C)NC(=O)[C@H](CCC(N)=O)NC(=O)[C@@H](NC(=O)[C@](C)(Cc1ccccc1)NC(=O)[C@H](CC(=O)O)NC(=O)[C@H](CCCCNC(=O)COCCOCCNC(=O)COCCOCCNC(=O)CC[C@H](NC(=O)CCCCCCCCCCCCCCCCC(=O)O)C(=O)O)NC(=O)[C@H](C)NC(=O)[C@H](C)NC(=O)[C@H](CCCNC(=N)N)NC(=O)[C@H](CO)NC(=O)[C@H](CC(=O)O)NC(=O)[C@H](CC(C)C)NC(=O)[C@](C)(Cc1ccccc1)NC(=O)[C@H](CCCCN)NC(=O)[C@H](CO)NC(=O)[C@@H](NC(=O)[C@H](CC(=O)O)NC(=O)[C@H](CO)NC(=O)[C@@H](NC(=O)[C@](C)(Cc1ccccc1)NC(=O)[C@H](CO)NC(=O)CNC(=O)[C@H](CCC(N)=O)NC(=O)C1(NC(=O)[C@@H](N)Cc2c[nH]cn2)CCC1)[C@@H](C)O)C(C)C)C(C)C)C(=O)N[C@@H](C)C(=O)N[C@@H](CC(N)=O)C(=O)N[C@H](C(N)=O)[C@@H](C)O` [Peptide 328] (H-H[Ac4c]QGS[αMeF]TSDVSK[αMeF]LDSRAAK([AEEA-AEEA-γGlu-C18 diacid])D[αMeF]VQ[Aib]IANT-NH2; N-terminus assumed), the EC50 [1] was 0.0154 nM, the “% Relative Potency Ratio” value [1] was 218.8 and the EC50 [2] was 1.7 nM.
